Settings: Liquid, Pulse-echo method

CCC(C)C(C)C (stereo not drawn) [2,3-dimethylpentane]
speed of sound [m/s]
Settings	293.15 K	303.15 K	313.15 K	323.15 K	333.15 K	343.15 K	353.15 K	363.15 K	373.15 K
100 kPa	1149.5	1103.2	1061.2	1017.4	973.7	931	889.5	849.4	808.9
10000 kPa	1220.2	1178.6	1138	1099.7	1061.7	1022.5	986.1	950.4	914.8
20000 kPa	1284.8	1245.9	1207.8	1171.8	1136.5	1101.8	1067.4	1035.4	1003.1
30000 kPa	1342.3	1306.5	1270.7	1236.2	1203.1	1170.5	1138.8	1108.4	1079
40000 kPa	1396.2	1361.5	1327.2	1294.8	1263.1	1232	1201.8	1173.6	1145.4
50000 kPa	1445.3	1411.9	1379.5	1348.2	1317.7	1287.5	1259.9	1232.3	1205.1
60000 kPa	1491.9	1458.5	1428.2	1397.8	1368.8	1339.8	1312.3	1286.2	1260.3
70000 kPa	1535.2	1503.4	1473.4	1444.3	1416	1388.3	1361.7	1336.7	1311.6
80000 kPa	1576.5	1545.5	1516.6	1488.2	1460.6	1433.1	1407.9	1383.4	1358.8
90000 kPa	1616.1	1585.9	1557.2	1529.5	1502.6	1476.4	1451	1427.8	1403.8
100000 kPa	1653	1623.9	1595.8	1569.1	1542.8	1516.8	1492.5	1469.5	1446.4
110000 kPa	1688.6	1660	1632.9	1606.4	1580.5	1555.6	1531.5	1508.7	1486.3
120000 kPa	1723.2	1694.7	1668.4	1642.2	1617.1	1592.3	1569.2	1546.8	1524.6
130000 kPa	1756.3	1728.8	1702.5	1676.9	1652.2	1627.9	1604.7	1583	1561.1
140000 kPa	1788	1760.4	1735.5	1713.3	1685.7	1661.8	1639.3	1617.8	1596.4
150000 kPa	1818.6	1792.3	1766.7	1742.2	1718.3	1694.8	1672.8	1650.9	1630.2

CCCC(C)C [2-methylpentane]
speed of sound [m/s]
Settings	293.15 K	303.15 K	313.15 K	323.15 K	333.15 K	343.15 K	353.15 K	363.15 K	373.15 K
100 kPa	1064.6	1016.5	971.8	927.3	–	–	–	–	–
10000 kPa	1145.5	1102.8	1061.7	1022	982.1	943.2	905	867.4	830.7
20000 kPa	1215.4	1176	1138.5	1101.2	1065.4	1030.2	996.4	962.8	931.1
30000 kPa	1277.6	1240.8	1205.5	1170.8	1137.2	1104.8	1073.6	1042.9	1013
40000 kPa	1334.9	1299.5	1265.9	1233.9	1201.3	1170.9	1141	1112.8	1084.6
50000 kPa	1386.9	1352.6	1321.2	1289.9	1260.2	1230.4	1201.8	1174.7	1148.2
60000 kPa	1434.8	1403	1372.2	1342.1	1313.1	1284.6	1257.8	1231.7	1206.3
70000 kPa	1480.4	1449.6	1419.4	1391.6	1363.4	1335.3	1309.7	1284.1	1259.6
80000 kPa	1523.4	1492.9	1464	1436	1408.6	1381.8	1356.7	1332.7	1309
90000 kPa	1564	1534.6	1506.3	1478.4	1452.5	1426.6	1402.3	1378.4	1354.6
100000 kPa	1602.3	1573.5	1546.3	1519.2	1493.6	1468.3	1444.8	1421.9	1399
110000 kPa	1638.5	1610.7	1584.2	1558.7	1532.6	1508.4	1485.1	1462.6	1440.8
120000 kPa	1674.4	1646.9	1620.7	1595.2	1570	1546.2	1523.3	1501.1	1479.6
130000 kPa	1708.1	1681.6	1655.7	1630.8	1605.9	1582.5	1560	1538.3	1517.1
140000 kPa	1740.8	1714.3	1689.6	1664.2	1640.4	1617.2	1595.2	1573.9	1553
150000 kPa	1771.8	1746.6	1721.4	1696.8	1673	1650.2	1628.8	1607.8	1587.5

From the NIST ThermoML archive (doi:10.1021/je0502849)
